Literature values, collected in paper PMC2699040 (European Journal of Immunology, 2007).

Tests used:
[1] = tested on: CTL line specific for the influenza epitope KTGGAIYKR; conditions: alanine-substituted at all but a single non-MHC anchor position; ref [14]; cited from earlier work
[2] = tested on: SC21 peripheral blood lymphocytes; conditions: adapted IFN-γ ELISPOT, directly ex vivo; ref [18]; cited from earlier work

Sequence	Recognition by CTL line [1]	HLA-A68-restricted response / antigenicity [2]
ATAAAIAAR	recognise efficiently	
FHCQVCFTTKALGISYGRKK [Tat4 peptide]		An HLA-A68-restricted response
